Measured values as given in ChEMBL document CHEMBL4419164, “Methods and compositions for inhibiting cnksr1” (2018).
Active and inactive are the calls of the source. No cut-off for these calls is given here.

Columns and labels:
[1] = molecular target: T1, Pleckstrin (Homo sapiens, UniProt P08567); test: Binding affinity to PLEK PH-domain (unknown origin) at 0.01 to 50 uM by SPR spectroscopy
T1 sequence (P08567 whole entry): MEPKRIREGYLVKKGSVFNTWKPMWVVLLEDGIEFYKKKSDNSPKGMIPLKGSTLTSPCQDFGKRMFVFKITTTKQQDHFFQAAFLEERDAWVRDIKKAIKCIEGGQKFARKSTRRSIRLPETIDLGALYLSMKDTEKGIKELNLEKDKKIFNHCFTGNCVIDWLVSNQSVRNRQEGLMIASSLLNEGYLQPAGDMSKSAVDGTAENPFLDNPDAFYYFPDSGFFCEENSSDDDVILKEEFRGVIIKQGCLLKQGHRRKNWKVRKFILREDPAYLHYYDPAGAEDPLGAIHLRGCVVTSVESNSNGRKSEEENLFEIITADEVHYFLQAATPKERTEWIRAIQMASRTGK

[2] = Terminal half life in iv dosed mouse; assay type: ADME, organism-based; details: in vivo, read-out: beta t1/2
[3] = molecular target: RAC-alpha serine/threonine-protein kinase (Homo sapiens, UniProt P31749); test: Binding affinity to AKT PH-domain (unknown origin) at 0.01 to 50 uM by SPR spectroscopy
Sequence of RAC-alpha serine/threonine-protein kinase (P31749 whole entry): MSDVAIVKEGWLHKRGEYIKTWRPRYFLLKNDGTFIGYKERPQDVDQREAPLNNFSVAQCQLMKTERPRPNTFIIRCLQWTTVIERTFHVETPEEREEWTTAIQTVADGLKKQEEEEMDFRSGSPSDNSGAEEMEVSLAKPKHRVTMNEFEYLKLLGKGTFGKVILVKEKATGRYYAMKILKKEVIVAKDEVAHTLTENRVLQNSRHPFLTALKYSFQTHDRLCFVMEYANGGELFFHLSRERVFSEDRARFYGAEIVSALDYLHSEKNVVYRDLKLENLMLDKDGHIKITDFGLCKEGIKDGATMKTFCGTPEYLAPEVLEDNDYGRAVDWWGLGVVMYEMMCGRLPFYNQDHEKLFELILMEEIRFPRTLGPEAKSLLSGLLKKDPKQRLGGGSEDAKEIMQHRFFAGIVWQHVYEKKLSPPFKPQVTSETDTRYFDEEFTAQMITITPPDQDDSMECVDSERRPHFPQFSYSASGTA

[4] = molecular target: T2, Connector enhancer of kinase suppressor of ras 1 (Homo sapiens, UniProt Q969H4); test: Binding affinity to CNKSR1 PH-domain (unknown origin) by SPR spectroscopy
T2 sequence (Q969H4 whole entry): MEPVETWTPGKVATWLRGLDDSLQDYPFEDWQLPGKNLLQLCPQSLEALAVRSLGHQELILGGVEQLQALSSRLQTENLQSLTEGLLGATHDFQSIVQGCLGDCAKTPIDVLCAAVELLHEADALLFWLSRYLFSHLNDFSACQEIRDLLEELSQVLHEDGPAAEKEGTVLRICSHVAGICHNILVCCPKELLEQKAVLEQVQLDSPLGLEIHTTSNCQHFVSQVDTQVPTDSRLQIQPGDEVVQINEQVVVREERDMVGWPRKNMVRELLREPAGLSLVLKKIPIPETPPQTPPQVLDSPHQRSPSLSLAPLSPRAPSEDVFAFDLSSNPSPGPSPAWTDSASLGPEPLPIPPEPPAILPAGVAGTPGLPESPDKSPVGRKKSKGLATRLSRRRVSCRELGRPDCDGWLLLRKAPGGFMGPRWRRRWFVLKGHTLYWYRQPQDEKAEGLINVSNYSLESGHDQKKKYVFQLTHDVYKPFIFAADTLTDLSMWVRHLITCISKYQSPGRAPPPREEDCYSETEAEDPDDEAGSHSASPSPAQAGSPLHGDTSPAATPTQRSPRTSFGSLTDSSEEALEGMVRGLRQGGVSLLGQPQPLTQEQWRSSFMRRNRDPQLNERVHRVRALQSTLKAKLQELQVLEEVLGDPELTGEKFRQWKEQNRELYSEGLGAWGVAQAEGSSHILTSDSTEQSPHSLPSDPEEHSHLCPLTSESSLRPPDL

[5] = molecular target: T3, Connector enhancer of kinase suppressor of ras 1 (Homo sapiens) (UniProt Q969H4); test: Inhibition of CNKSR1 (unknown origin) assessed as reduction in inhibition of KRas signaling effectors by measuring p-MAPK levels at 20 uM by cell based assay
T3 sequence (whole entry): T2 sequence (Q969H4 whole entry)

[6] = tested on: HCC515; test: Growth inhibition of human HCC515 cells incubated for 3 days; assay type: functional, cell-based; details: HCC515, 72 h
[7] = Cmax in C57BL6 mouse plasma at 250 mg/kg, po dosed via gavage as single administration; assay type: ADME, organism-based; set-up: dose 250 mg/kg, route oral
[8] = tested on: NCI-H2122; test: Growth inhibition of human NCI-H2122 cells incubated for 3 days; assay type: functional, cell-based; details: NCI-H2122, 72 h
[9] = molecular target: T3, Connector enhancer of kinase suppressor of ras 1 (Homo sapiens); test: Inhibition of CNKSR1 (unknown origin) assessed as reduction in inhibition of KRas signaling effectors by measuring p-AKT levels at 20 uM by cell based assay
[10] = molecular target: T3, Connector enhancer of kinase suppressor of ras 1 (Homo sapiens); test: Inhibition of CNKSR1 (unknown origin) assessed as reduction in inhibition of KRas signaling effectors by measuring GTP-RalA levels at 20 uM by cell based assay
[11] = Half life in C57BL6 mouse at 250 mg/kg, po dosed via gavage as single administration; assay type: ADME, organism-based; details: in vivo
[12] = tested on: HCC95; test: Growth inhibition of human HCC95 cells incubated for 3 days; assay type: functional, cell-based; details: HCC95, 72 h
[13] = Growth inhibition of human […] cells incubated for 3 days; assay type: functional; details: 72 h
[14] = molecular target: T3, Connector enhancer of kinase suppressor of ras 1 (Homo sapiens); test: Inhibition of GFP-tagged CNKSR1 (unknown origin) expressed in HEK293T cells assessed as blocking of membrane colocalization of CNKSR1 and mutant-KRas at plasma membrane at 50 uM incubated for 4 hrs by confocal imaging assay; assay type: cell-based
[15] = molecular target: T3, Connector enhancer of kinase suppressor of ras 1 (Homo sapiens); test: Inhibition of GFP-tagged CNKSR1 (unknown origin) expressed in HEK293T cells assessed as inhibition of direct binding of CNKSR1 to mut-KRAS at 50 uM incubated for 4 hrs by fluorescence lifetime imaging microscopy; assay type: cell-based
[16] = molecular target: T3, Connector enhancer of kinase suppressor of ras 1 (Homo sapiens); test: Inhibition of GFP-tagged CNKSR1 (unknown origin) expressed in HEK293T cells assessed as reduction in total mutant-KRas protein at 50 uM incubated for 4 hrs by confocal imaging assay; assay type: cell-based
[17] = tested on: A549; test: Antitumor activity against human A549 cells xenografted in nu/nu mouse assessed as reduction in tumor volume at 200 mg/kg, ip dosed daily for 8 days; assay type: functional, organism-based
[18] = tested on: A549; test: Antitumor activity against human A549 cells xenografted in nu/nu mouse assessed as reduction in tumor volume at 200 mg/kg, ip dosed daily for 8 days co-treated with 75 mg/kg, po erlotinib; assay type: functional, organism-based
[19] = tested on: NCI-H1373; test: Growth inhibition of human NCI-H1373 cells relative to control; assay type: functional, cell-based
[20] = organism: Homo sapiens; test: Selectivity index, ratio of binding affinity to TIAM1 PH-domain (unknown origin) by SPR spectroscopy to binding affinity to CNKSR1 PH-domain (unknown origin) by SPR spectroscopy
[21] = tested on: NCI-H2122; test: Growth inhibition of human NCI-H2122 cells relative to control; assay type: functional, cell-based
[22] = molecular target: T4, 3-phosphoinositide-dependent protein kinase 1 (Homo sapiens) (UniProt O15530); test: Binding affinity to PDPK1 PH-domain (unknown origin) at 0.01 to 50 uM by SPR spectroscopy
T4 sequence (whole entry): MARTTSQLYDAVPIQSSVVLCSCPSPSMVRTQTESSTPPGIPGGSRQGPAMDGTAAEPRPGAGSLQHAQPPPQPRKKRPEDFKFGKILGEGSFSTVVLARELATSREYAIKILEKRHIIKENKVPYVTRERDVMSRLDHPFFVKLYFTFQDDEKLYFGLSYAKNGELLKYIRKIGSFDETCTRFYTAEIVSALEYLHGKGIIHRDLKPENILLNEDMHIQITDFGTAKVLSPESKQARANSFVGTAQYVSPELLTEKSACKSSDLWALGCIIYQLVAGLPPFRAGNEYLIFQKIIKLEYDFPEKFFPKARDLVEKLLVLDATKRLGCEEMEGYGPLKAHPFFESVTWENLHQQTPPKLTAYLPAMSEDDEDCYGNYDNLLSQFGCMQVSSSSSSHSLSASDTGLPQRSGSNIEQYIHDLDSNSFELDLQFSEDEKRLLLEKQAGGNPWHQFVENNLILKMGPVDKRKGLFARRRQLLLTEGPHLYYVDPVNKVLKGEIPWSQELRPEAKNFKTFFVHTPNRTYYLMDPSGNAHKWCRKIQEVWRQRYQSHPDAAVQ

[23] = tested on: HCC515; test: Growth inhibition of human HCC515 cells relative to control; assay type: functional, cell-based
[24] = molecular target: Rho guanine nucleotide exchange factor TIAM1 (Homo sapiens) (UniProt Q13009); test: Binding affinity to TIAM1 PH-domain (unknown origin) at 0.01 to 50 uM by SPR spectroscopy
Sequence of Rho guanine nucleotide exchange factor TIAM1 (Homo sapiens) (Q13009 whole entry): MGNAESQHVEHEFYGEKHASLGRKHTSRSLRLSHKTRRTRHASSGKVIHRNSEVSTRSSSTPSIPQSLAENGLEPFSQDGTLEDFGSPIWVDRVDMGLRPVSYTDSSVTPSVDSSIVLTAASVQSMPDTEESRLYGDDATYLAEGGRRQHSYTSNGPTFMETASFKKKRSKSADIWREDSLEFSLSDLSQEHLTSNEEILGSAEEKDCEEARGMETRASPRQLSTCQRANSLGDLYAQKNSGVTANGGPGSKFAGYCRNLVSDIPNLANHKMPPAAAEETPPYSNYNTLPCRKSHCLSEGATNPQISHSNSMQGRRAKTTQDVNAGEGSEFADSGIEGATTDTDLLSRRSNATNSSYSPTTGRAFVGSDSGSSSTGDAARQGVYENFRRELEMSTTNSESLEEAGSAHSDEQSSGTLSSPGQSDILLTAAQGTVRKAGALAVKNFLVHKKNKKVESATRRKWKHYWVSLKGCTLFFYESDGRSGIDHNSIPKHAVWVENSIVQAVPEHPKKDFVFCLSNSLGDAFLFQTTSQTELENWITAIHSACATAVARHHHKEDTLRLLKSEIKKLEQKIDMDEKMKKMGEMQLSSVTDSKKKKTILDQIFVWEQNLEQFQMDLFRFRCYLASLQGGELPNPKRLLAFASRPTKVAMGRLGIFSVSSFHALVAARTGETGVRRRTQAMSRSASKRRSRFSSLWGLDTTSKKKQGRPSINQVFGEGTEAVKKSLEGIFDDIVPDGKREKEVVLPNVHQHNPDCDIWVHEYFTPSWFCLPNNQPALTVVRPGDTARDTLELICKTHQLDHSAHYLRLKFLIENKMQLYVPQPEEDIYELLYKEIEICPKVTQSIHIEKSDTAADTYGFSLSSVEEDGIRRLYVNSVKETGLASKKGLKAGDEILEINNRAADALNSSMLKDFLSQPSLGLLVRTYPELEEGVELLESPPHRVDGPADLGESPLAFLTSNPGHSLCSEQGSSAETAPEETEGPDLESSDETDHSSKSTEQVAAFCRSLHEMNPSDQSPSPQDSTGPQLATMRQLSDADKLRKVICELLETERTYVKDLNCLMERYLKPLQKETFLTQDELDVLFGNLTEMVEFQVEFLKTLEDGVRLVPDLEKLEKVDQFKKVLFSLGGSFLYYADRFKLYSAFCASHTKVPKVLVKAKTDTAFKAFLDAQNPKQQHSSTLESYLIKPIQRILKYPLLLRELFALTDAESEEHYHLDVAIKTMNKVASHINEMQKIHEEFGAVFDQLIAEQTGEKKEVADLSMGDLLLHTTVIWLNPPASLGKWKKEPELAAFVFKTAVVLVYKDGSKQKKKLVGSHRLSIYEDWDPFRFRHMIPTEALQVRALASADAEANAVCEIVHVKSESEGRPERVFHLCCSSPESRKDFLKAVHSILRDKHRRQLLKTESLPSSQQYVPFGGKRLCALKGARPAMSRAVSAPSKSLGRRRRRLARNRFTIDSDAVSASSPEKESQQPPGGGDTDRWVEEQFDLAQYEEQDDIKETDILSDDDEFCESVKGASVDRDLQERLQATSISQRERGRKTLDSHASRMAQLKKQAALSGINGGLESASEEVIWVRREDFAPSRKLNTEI

[25] = organism: Homo sapiens; test: Selectivity index, ratio of binding affinity to AKT PH-domain (unknown origin) by SPR spectroscopy to binding affinity to CNKSR1 PH-domain (unknown origin) by SPR spectroscopy
[26] = organism: Homo sapiens; test: Selectivity index, ratio of binding affinity to PDPK1 PH-domain (unknown origin) by SPR spectroscopy to binding affinity to CNKSR1 PH-domain (unknown origin) by SPR spectroscopy
[27] = tested on: A549; test: Growth inhibition of human A549 cells relative to control; assay type: functional, cell-based

CCOC(=O)/C=C/c1c(O)c(OC)cc(NS(=O)(=O)c2cccs2)c1SC
Kd [1]: 300 µM

CCOC(=O)/C=C/c1cc(NS(=O)(=O)c2cccs2)c2c(c1O)OCO2
Kd [1]: 261 µM

Cc1ccc(-c2csc(Cn3nc(CC(=O)N4CCN(C)CC4)c4ccccc4c3=O)n2)cc1
half-life [2]: 5.45 h

COc1c(/C=C/C(=O)O)cc(NS(=O)(=O)c2cccs2)c2c1OCO2
Kd [3]: Not Active | Kd [4]: Not Active

Cc1ccc(-c2csc(Cn3nc(CC(=O)O)c4ccccc4c3=O)n2)cc1
inhibition [5]: Active | IC50 [6]: > 100 µM | Cmax [7]: 230 µM | IC50 [8]: > 100 µM | half-life [2]: 1.2 h | inhibition [9]: Active | inhibition [10]: Active | half-life [11]: 13 h | IC50 [12]: > 100 µM | IC50 [13]: > 100 µM

Cc1ccc(-c2csc(Cn3nc(CC4OCC(=O)O4)c4ccccc4c3=O)n2)cc1 (stereo not drawn)
inhibition [5]: Active | IC50 [6]: 34 µM | IC50 [8]: > 100 µM | inhibition [9]: Active | inhibition [10]: Active | IC50 [12]: 40 µM | IC50 [13]: 56 µM

Nc1cccc(-c2cc(C(=O)O)c3cc(Cl)ccc3n2)c1
Activity [3]: Active

Cc1ccc(-c2nc(SCC(=O)O)c3c(=O)n(C)c(=O)n(C)c3n2)cc1
Kd ([3]; read-out: Kd): 1.28 µM | Kd ([4]; read-out: Kd): 1.01 µM

O=C(O)CCc1ccc(-c2ccc(Br)cc2)n1CCC(=O)O
Activity [3]: Active | Kd ([4]; read-out: Kd): 0.000196 µM

Cc1ccc(-c2csc(Cn3nc(CC4OCCCO4)c4ccccc4c3=O)n2)cc1
inhibition [14]: Active | inhibition [15]: Active | inhibition [16]: Active | inhibition [5]: Active | IC50 [6]: 37 µM | IC50 [8]: > 100 µM | half-life [2]: 4.33 h | TGI [17]: Active | inhibition [9]: Active | TGI [18]: Active | inhibition [10]: Active | IC50 [12]: 45 µM | IC50 [13]: 38 µM

COc1ccc(OC)c(-c2cc(C(=O)O)c3nc(C)[nH]c3n2)c1
Activity [3]: Active

CCNC(=O)Cc1nn(Cc2nc(-c3ccc(C)cc3)cs2)c(=O)c2ccccc12
half-life [2]: 0.467 h | TGI [17]: Active

Cc1ccc(-c2csc(Cn3nc(Cc4nccs4)c4ccccc4c3=O)n2)cc1
inhibition [5]: Active | IC50 [6]: 28 µM | IC50 [8]: 26 µM | half-life [2]: 4.08 h | inhibition [9]: Active | inhibition [10]: Active | IC50 [12]: 46 µM | IC50 [13]: 49 µM

CC(=O)Nc1cccc(-n2nnc(SCC(=O)c3cc(-c4ccccc4)no3)n2)c1
growth inhibition (GI) [19]: Active | Ratio [20]: 50 to 100 | growth inhibition (GI) [21]: Active | Activity [22]: inactive | Activity [3]: inactive | growth inhibition (GI) [23]: Active | Activity [24]: inactive | Ratio [25]: 50 to 100 | Ratio [26]: 50 to 100 | growth inhibition (GI) [27]: Active

O=C(O)c1ccc2c(c1)C1C=CCC1C(C(=O)O)N2 (stereo not drawn)
Kd ([3]; read-out: Kd): 0.000474 µM | Kd ([4]; read-out: Kd): 5.34 µM

O=C(O)CSc1cc(NS(=O)(=O)c2cccs2)c2ccccc2c1O
IC50 [6]: 11 µM | IC50 [8]: 34 µM | Activity [3]: Active | Kd ([4]; read-out: Kd): 3.64 µM | IC50 [12]: 13 µM | IC50 [13]: 7 µM

Cc1c(Cl)ccc2c(C(=O)O)cc(-c3cccnc3)nc12
Activity [3]: Active

Cc1ccc(-c2csc(Cn3nc(CC=O)c4ccccc4c3=O)n2)cc1
half-life [2]: 0.583 h

O=C(O)COc1cc(OCC(=O)O)c2c3c(c(=O)oc2c1)CCCC3
Activity [3]: Active | Kd ([4]; read-out: Kd): 1.13 µM
